Results as given in patent US9833520B2, “Labeled, non-peptidic, multivalent integrin antagonist compounds; methods for synthesis and uses thereof” (The Methodist Hospital Research Institute, priority 2011, dated 2017).
Entries after “also recorded” stand apart in the source; their conditions may differ. Like-named read-outs stand apart in the source and are kept apart here.

What was measured:
[1] = molecular target: T1, purified human αvβ3 (Homo sapiens, UniProt P05106+P06756); test: ELISA: competitive inhibition of biotinylated vitronectin binding to immobilized purified integrin αvβ3; settings: for higher binding affinity as compared to monomer 1 (IA): compared to IA 1
T1 construct: purchased Chemicon International, Temecula, Calif., USA
Description: In vitro Binding Assay. […] Purified integrin αvβ3 protein (Chemicon International, Temecula, Calif., USA) was applied to 96-well polystyrene microtiter plates at 0.1 μg/well. After overnight incubation at 4° C., the plates were washed, and then blocked with milk solution (KPL, Inc. Gaithersburg, Md., USA) at room temperature for 2 hr. The blocking buffer was removed, and the plates were inoculated in quadruplicate with bivalent IAs with a typical starting concentration of 125 nM. Serial dilutions were prepared in the 96-well plates using multichannel pipettes. Biotinylated vitronectin solution (0.1 μg/well) was added to each well as a standard competitor. The plates were incubated at room temperature for 3 h, washed, and the bound vitronectin was detected using NeutrAvidin-HRP conjugate at 0.01 μg/well (Pierce, Rockford, Ill., USA) and LumiGlo® chemiluminescent substrate system (KPL, Inc.). The luminescence was read using a FLUOstar™ OPTIMA Microplate Reader (Durham, N.C., USA). […] (Peptides International, Inc., Louisville, Ky., USA) was also tested using the same method as described above.
Briefly, purified integrin αvβ3 protein (Chemicon International, Temecula, Calif., USA) was applied to 96-well polystyrene microtiter plates for overnight incubation at 4° C. The plates were washed and then blocked with milk solution (KPL, Inc., Gaithersburg, Md., USA) and the plates were inoculated in quadruplicate with multivalent IAs at different concentrations. Biotinylated vitronectin solution was added to each well as a standard competitor. The plates were incubated at room temperature, washed, and the bound vitronectin detected using NeutrAvidin-HRP® conjugate (Pierce, Rockford, Ill., USA) and LumiGlo® chemiluminescent substrate system (KPL, Inc., Gaithersburg, Md., USA). The luminescence was read using a FLUOstar® OPTIMA Microplate Reader (Durham, N.C., USA).
In vitro Binding Affinity Assay. Purified integrin αvβ3 protein (Chemicon International, Temecula, Calif., USA) was applied to 96-well polystyrene microtiter plates at 1 μg/well. After overnight incubation at 4° C., the plates were washed and then blocked with milk solution (KPL, Inc., Gaithersburg, Md., USA) at room temperature for 2 hr. The blocking buffer was removed, and the plates were inoculated in quadruplicate with bivalent IAs with a typical starting concentration of 125 nM. Serial dilutions were prepared in the 96-well plates using multichannel pipettes. Biotinylated vitronectin solution (0.1 μg/well) was added to each well as a standard competitor.
The plates were incubated at room temperature for 3 hr, washed, and the bound vitronectin was detected using NeutrAvidin-HRP conjugate at 0.01 μg/well (Pierce, Rockford, Ill., USA) and LumiGlo® chemiluminescent substrate system (KPL, Inc.). The luminescence was read using a FLUOstar OPTIMA Microplate Reader (Durham, N.C., USA). […] It measured competitive binding of the integrin antagonist and biotinylated human vitronectin for the immobilized receptor αvβ3.

[2] = test system: U-87 xenograft tumors; test: In vivo and ex vivo NIR fluorescence imaging of U-87 xenograft tumor-bearing mice
Description: U-87 MG Xenograft Model, Animal procedures were performed according to approved protocols. Female athymic nude mice (nu/nu), obtained from Charles River Laboratories, Inc. (Cambridge, Mass., USA) at 4-6 weeks of age, were injected subcutaneously in the right rear thigh with 1×10^7 U-87 MG cells suspended in 100 μL of phosphate-buffered saline (PBS). The cancer cells were harvested from sub-confluent cultures with 0.25% trypsin. Trypsinization was stopped with DMEM containing 10% FBS, after which the cells were washed once in serum-free medium and resuspended in PBS. Trypan blue exclusion was performed to ensure >90% cell viability. The tumor bearing mice were subjected to in vivo imaging studies when the tumors reached 0.4-0.6 cm in diameter.
In vivo Fluorescence Imaging of Tumors. ˜3×10^6 U-87 cells were implanted bilaterally in the posterior flanks of immunocompromised (nu/nu) mice and grown to ˜4 to 6 mm in diameter. Imaging was carried out in groups of five mice. After palpable masses were detected, animals were manually restrained and imaging probes were intravenously administered (lateral tail vein) using a 30-Ga needle via aseptic technique. Free Cy5.5 was prepared by dissolving the same Cy5.5NHS ester used for labeling the bivalent IA (GE Healthcare, Piscatway, N.J., USA) in phosphate buffered saline (PBS), pH 7.4 overnight at 4° C. Stock concentration of free Cy5.5 was measured optically using the molar extinction coefficient of 250000M-1 cm-1 using a UV-visible spectrophotometer at the maximum absorbance wavelength (675 nm) as recommended by the manufacturer. The bivalent-IA-Cy5.5 was weighed and confirmed by spectrophotometric measurement. Appropriate dilutions of each probe were made in PBS, pH 7.4, and each was filter sterilized (0.2-μm) immediately prior to use. All animals weighed between 18 and 20 g, and each received 10 nmol of imaging probe (in a total volume of 100 μL). Fluorescence imaging was performed with a small animal-dedicated optical imaging system (Xenogen/Caliper IVIS-200, Mountain View, Calif., USA) under continuous 1.5-2.0% isoflurane delivered through the integrated anesthesia nosecone system. At 2-, 4-, 7-, 24-, and 48-hrs' post-injection, images were acquired with the surface of the tissue of interest (tumor) approximating a perpendicular viewing angle relative to the camera line of sight; this viewing angle was also used for normal tissue selection.
For determining tumor contrast, mean fluorescence intensities of the tumor area (T) defined as radiance (photons/sec/cm2/sr) at the right rear leg of the animal and of the area (N) at the right flank (normal tissue) were calculated by region-of-interest (ROI) analysis using the corresponding photograph of each image acquisition dataset to identify the tumor region. Pre-injection imaging was also performed to determine baseline autofluorescence. For competitive inhibition studies, mice (n=3) were co-injected with 500 nmol bivalent IA and 10 nmol of imaging probe (bivalent-IA-Cy5.5) following the same procedure described above. Free Cy5.5 studies were performed in the same manner following the intravenous injection of 10 nmol. For ex vivo biodistribution imaging, two tumor-bearing mice were imaged 24 hrs post injection of bivalent-IA-Cy5.5 and thereafter euthanized per IACUC protocol (CO2 and cervical dislocation). Tumor and major internal organs (heart, lung, liver, spleen, gastrointestinal tract, and kidneys) were harvested, weighed, and imaged against a black paper background. All image acquisition parameters were as follows: epi-illumination; Cy5.5 Em/Ex; Bin: (HR)4, FOV: 12.9; f2; 0.2 sec.

[3] = test system: U-87 MG (ATCC HTB-14) glioblastoma cells over-expressing integrin αvβ3; test: Fluorescence microscopy probe binding assay in U-87 cells; assay type: cell-based, human; settings: 200 nM, 37° C., 45 min, confocal microscopy
Description: Fluorescence Microscopy Studies. […] For fluorescence microscopy studies, 1×10^4 U-87 cells were cultured on 35 mm MatTek glass bottom culture dishes. After 24 hr, cells were washed with PBS and then incubated with bivalent-IA-Cy5.5 (200 nM) at 37° C. for 45 min. Integrin specificity of the probe binding was verified by incubating U-87 cells with and without a blocking dose of the non-fluorescent bivalent IA (20 μmol/L). After the incubation period, the cells were washed three times with ice-cold PBS. The fluorescence signal of the cells was recorded using FluoView® 1000 Laser Scanning Confocal Microscope (Olympus, Center Valley, Pa., USA) under a 40× oil-immersion objective, with laser excitation at 675 nm (Cy5.5). A differential interference contrast image was also recorded so that the origin of fluorescent signals could be confirmed.

[4] = Example 2, PEG-linked ligands, averages of at least three determinations, read-out: In vitro EL1SA IC50

`CC(C)(CNC(=O)OCCOCCOCCOCCOC(=O)NCC(C)(C)COC(=O)NCCS(=O)(=O)N[C@@H](CNC(=O)c1ccc(OCCNC2=NCCCN2)cc1)C(=O)O)COC(=O)NCCS(=O)(=O)N[C@@H](CNC(=O)c1ccc(OCCNC2=NCCCN2)cc1)C(=O)O` [Compound 7] showed an IC50 [1, 4] of 0.11 nM.

In the case of `CCN1\C(=C/C=C/C=C/C2=[N+](CCCCCC(=O)O)c3ccc4c(S(=O)(=O)O)cc(S(=O)(=O)O)cc4c3C2(C)C)C(C)(C)c2c1ccc1c(S(=O)(=O)[O-])cc(S(=O)(=O)O)cc21` [free Cy5.5, reference compound], the “tumor fluorescence signal / accumulation” value ([2]; 10 nmol i.v.) is reported as “slightly higher than the background but is lower than that achieved with the bivalent-IA-Cy5.5”.

In the case of `CC(C)(CNC(=O)OCCOCCOCCOC(=O)NCC(C)(C)COC(=O)NCCS(=O)(=O)N[C@@H](CNC(=O)c1ccc(OCCNC2=NCCCN2)cc1)C(=O)O)COC(=O)NCCS(=O)(=O)N[C@@H](CNC(=O)c1ccc(OCCNC2=NCCCN2)cc1)C(=O)O` [Compound 6], the IC50 [1, 4] is reported as 0.09 nM and the “higher affinity as compared to the corresponding monomer 2” value ([1]; compared to IAC 2) is reported as roughly 23 fold.

With `CC[N+]1=C(/C=C/C=C/C=C2/N(CCCCCC(=O)NC(CCCCCC(=O)NCCS(=O)(=O)N[C@@H](CNC(=O)c3ccc(OCCNC4=NCCCN4)cc3)C(=O)O)C(=O)NCCS(=O)(=O)N[C@@H](CNC(=O)c3ccc(OCCNC4=NCCCN4)cc3)C(=O)O)c3ccc4c(S(=O)(=O)O)cc(S(=O)(=O)O)cc4c3C2(C)C)C(C)(C)c2c1ccc1c(S(=O)(=O)[O-])cc(S(=O)(=O)O)cc21` (stereo partly drawn) [bivalent-IA-Cy5.5] the IC50 ([1]; Example 1 bivalent IA study, FIG. 4, read-out: IC50 of vitronectin binding to αvβ3 (ELISA)) was 0.13 ± 0.02 nM, the “endocytosis / binding of probe in U-87 cells” value (from here on “endocytosis / binding of probe”) [3] was “endocytosis of the imaging probes; also recorded: integrin-mediated endocytosis” and the “endocytosis / binding of probe” value ([3]; listed as Bivalent-IA-Cy5.5 conjugate) was “Receptor-mediated endocytosis was observed”. The “endocytosis / binding of probe” value ([3]; listed as bivalent-IA-Cy5.5 conjugate) was “integrin-mediated endocytosis”, the “tumor fluorescence signal / accumulation” value ([2]; 10 nmol i.v.) was “increased signal in tumor sites at 7, 24, and 48 hrs; also recorded: modest accumulation at the tumor site” and the “tumor-to-normal tissue (T/N) fluorescence ratio, average maximum” value ([2]; 10 nmol i.v., plateau at 24 hr, n=5) was roughly 1.84. The “ex vivo signal per mass of tissue (biodistribution)” value ([2]; 24 hrs post-injection, two animals) was “The highest signal per mass of tissue was observed for the tumor”, the “blood-pool / circulation clearance rate” value ([2]; inferred from fluorescence) was “relatively slow blood-pool clearance rate; also recorded: relatively slow clearance of the probe from the circulation” and the route of clearance ([2]; inferred from kidney fluorescence signal, 24 hrs) was “mainly renal clearance”. The hepatic metabolism ([2]; inferred from minimal liver signal, 24 hrs) was “low hepatic metabolism”.

`O=C(NCCS(=O)(=O)N[C@@H](CNC(=O)c1ccc(OCCNC2=NCCCN2)cc1)C(=O)O)OCCOCCOCCOCCOCCOCCOCCOCCOC(=O)NCCS(=O)(=O)N[C@@H](CNC(=O)c1ccc(OCCNC2=NCCCN2)cc1)C(=O)O` [Compound 5] showed an IC50 [1, 4] of 0.16 nM.

In the case of `O=C(NCCS(=O)(=O)N[C@@H](CNC(=O)c1ccc(OCCNC2=NCCCN2)cc1)C(=O)O)OCCOCCOCCOCCOC(=O)NCCS(=O)(=O)N[C@@H](CNC(=O)c1ccc(OCCNC2=NCCCN2)cc1)C(=O)O` [Compound 4], the IC50 [1, 4] is reported as 0.16 nM.

`CC(C)(CNC(=O)OCCOCCOCCOCCOCCOCCOCCOCCOC(=O)NCC(C)(C)COC(=O)NCCS(=O)(=O)NC(CNC(=O)c1ccc(OCCNC2=NCCCN2)cc1)C(=O)O)COC(=O)NCCS(=O)(=O)NC(CNC(=O)c1ccc(OCCNC2=NCCCN2)cc1)C(=O)O` (stereo not drawn) [Compound 8] gave an IC50 [1, 4] of 0.32 nM.

With `CC(C)(CN)COC(=O)NCCS(=O)(=O)N[C@@H](CNC(=O)c1ccc(OCCNC2=NCCCN2)cc1)C(=O)O` [IAC 2] the IC50 [1, 4] was 2.07 nM, the “higher binding affinity as compared to monomer 1 (IA)” value [1] was “about 10 fold” and the “higher binding affinity as compared to monomer 1 (IA)” value ([1]; listed as 2) was 10 fold.

Work on `O=C(NCCS(=O)(=O)N[C@@H](CNC(=O)c1ccc(OCCNC2=NCCCN2)cc1)C(=O)O)OCCOCCOCCOC(=O)NCCS(=O)(=O)N[C@@H](CNC(=O)c1ccc(OCCNC2=NCCCN2)cc1)C(=O)O` [Compound 3] yielded an IC50 [1, 4] of 0.16 nM.
